We go through five molecules from patent US7041815B2, “Sporamin promoter and uses thereof” (Sinon Corporation, priority 2001, dated 2006).

Holding throughout (type): in vivo, Nicotiana tabaccum cv. W38
Data set [1] concerns sporamin promoter fused to the GUS reporter gene. The data set can be described thus: Pspoa-GUS activity in response to elicitors sprayed onto leaves (fluorometric GUS assay). As to conditions: for effect on the sporamin promoter function (in words): treatment alone. Here is the method:
The plasmid was transformed into tobacco cells (Nicotiana tabaccum cv. W38) using Agrobacterium tumefaciens LBA4404 in the leaf disc method (Hörsch et al. (1985). Science 227:1229–1231). […] Two lines, Tspoa11 and Tspoa37 were selected for further analysis. GUS activity was measured in the leaves of plants obtained from these lines as follows. A middle leaf of the mature tobacco plant was injured with a scissors. Two hours later, wounded and unwounded leaves were harvested, mixed with GUS extraction buffer (50 mM sodium phosphate, pH 7.0, 10 mM EDTA, 10 mM β-mercaptoethanol, 0.1% sodium lauryl sarcosine, 0.1% Triton X-100), frozen, and grounded into a fine powder with a mortar and pestle while in liquid nitrogen. The sample was thawed and centrifuged at 12,000×g for 10 minutes at 4° C. The total protein content was determined using the method of Bradford ((1976) Anal. Biochem. 72:248–254). GUS activity was measured in a fluorometric assay by the addition of 4-methylumbelliferyl-β-D-glucuronide substrate and monitoring the reaction in a […] to determine […] of activity following the method of Jefferson ((1987) EMBO J 6:3901–3908).
The activity the Pspoa-GUS fusion was monitored in response to spraying with the elicitor, methyl jasmonate. Solutions of 50 μM and 100 μM methyl jasmonate were prepared and sprayed onto leaves using a commercial atomizer. Sodium phosphate buffer, pH 7.0, was used as a control solution.
The activity of the sporamin promoter fused to the GUS reporter gene was monitored in response to abscisic acid (ABA). Solutions of 100 μM and 200 μM ABA were prepared and sprayed onto leaves using a commercial atomizer.

Data set [2] shares this test system. Described as above. Conditions: 1 mM sprayed onto leaves of Pspoa-GUS tobacco.
In data set [3] the test system is GUS reporter gene. The data set can be described thus: Pspoa-GUS activity in response to leaf wounding (fluorometric GUS assay). The text has this: To analyze the properties of the sporamin promoter, the promoter was operably linked to the reporter gene β-glucuronidase (GUS). The plasmid pBI101 is a Ti plasmid binary vector harboring the GUS gene in a form lacking a promoter (Clontech, Palo Alto Calif.). The sporamin promoter was excised with the restriction endonucleases XbaI and BamHI, isolated, and ligated into compatible sites of a restricted pBI101 nucleic acid. The resulting plasmid construct, termed pBI101/Pspoa, was verified by restriction mapping and nucleic acid sequencing.
Two lines, Tspoa11 and Tspoa37 were selected for further analysis. GUS activity was measured in the leaves of plants obtained from these lines as follows. A middle leaf of the mature tobacco plant was injured with a scissors. Two hours later, wounded and unwounded leaves were harvested, mixed with GUS extraction buffer (50 mM sodium phosphate, pH 7.0, 10 mM EDTA, 10 mM β-mercaptoethanol, 0.1% sodium lauryl sarcosine, 0.1% Triton X-100), frozen, and grounded into a fine powder with a mortar and pestle while in liquid nitrogen. The sample was thawed and centrifuged at 12,000×g for 10 minutes at 4° C.
GUS activity was monitored as described above at various intervals after leaf wounding.

Setting [4] is: 100 μM sprayed onto leaves of Pspoa-GUS tobacco.
The mark [5] stands for this setting: 200 μM sprayed onto leaves of Pspoa-GUS tobacco.

With `CC1=CC(=O)CC(C)(C)[C@@]1(O)/C=C/C(C)=C\C(=O)O` [ABA, abscisic acid], the GUS activity in data set [1] (setting [4]) stood at 170 nmole MU/min/mg protein; in data set [1] (setting [5]), 60 nmole MU/min/mg protein. Besides, the “induction of the sporamin promoter (in words)” value in data set [1] (100 μM, fluorometric assay) is “potent inducer”.
On to `O=C(O)c1ccccc1O` [SA, salicylic acid], for which the GUS activity in data set [1] (setting [5]) is given as 15 nmole MU/min/mg protein; in data set [2], 21 nmole MU/min/mg protein. Also, the “sporamin promoter activity when treatment precedes wounding or methyl jasmonate treatment (in words)” value in data set [1] (pre-treatment before wounding / methyl jasmonate) is reported as “less sporamin promoter activity was observed”. In addition, the “effect on the sporamin promoter function (in words)” value in data set [1] is “no effect”.
For `C=C` [ethylene], the “effect on the sporamin promoter function (in words)” value in data set [1] is “no effect”.
As for `CC/C=C\CC1C(=O)CCC1CC(=O)OC` (stereo not shown) [methyl jasmonate], the GUS activity in data set [1] (50 μM sprayed onto leaves of Pspoa-GUS tobacco) amounted to 420 nmole MU/min/mg protein; in data set [1] (setting [4]), 225 nmole MU/min/mg protein. Also, the figures for the GUS activity increase in data set [1] (two hours after spraying with 50 μM) and in data set [1] (two hours after spraying with 100 μM) were 37 fold and 20 fold, respectively.

B1: sporamin promoter: 1.25 kb sweet potato (Ipomoea batatas) sporamin promoter sequence, SEQ ID NO:1 (nucleic acid)
DNA: CGACGGCCCGGGCTAGGTCAAGTAACCCGAACTTGGTCAAGTTTGTTATAACTTATTCTCCCTTTTTCGTGAGGGCGGTTAGGGGACTTAGTATAAATAGGAGTGTAATCGGGCTTGTTAAGACATATTGAACTCACCTGTAATAGCATTACATTTCTCGTAAATACGTACAATATCCTTGTCTTTCCAATAACATTTTTGTCTTTTACCATTATCTTTTATCCAATCCTTTAATTATCGAGTTTGTTAATTCAGATCACCCAAATTAATTAAATCCATCATTTGGATTAAGTTATCTTACTTTACTAATTAGAGTTTTTATCTTCAGAGGAAGGAAGAAGAAAATTAATTGACATGACTCTCATCGGGTTGCACTCCACCCATTATGTTATACAATGCAAACTCTTTTAAAATAAATTAAAATTATATATATATATAATAGTGCAACCTACATCACTTTTTCAATGTGGGACGAAAGCACCTTCAAAAGTCTTTCGAACCCCATTTTTCCTCGAATATATTTTGAGAATCAATTTCTCAATTAATCATTATTATCCATCTTCGTGTACATATATAATATATATATCACATTAAACATCTAACTTAGAAGAACTCAAATTTATTTTTAACTCTACTTATATCAAAAGTGGACTCTACTGAAAATTATACCACAAAATGATATTTTAAACGTTATATTTAACAAAAATTTCTGACATTATCTTATTTAATCTTCTACTAGTTAGAATAATAAAACAAATTTCACTCATAACATAAATTTAAATAGTGATCGTGAATTTTTACGGAAATTAATCAAATAATTGTATGTAATAATGTAATGTAATGAATTTTGATGATGGGTAAAATGTATTTTAATTATTACACGACTTGCCTTCTTTAATTTGTTCTTAGGATCCTAGACTTCATCCCTGCATAGCAAAACCATTGGACACTTGGACGGCCACAAATCATTTCTATTTTCTCCCAACTCCTCCTGTCAGCATGGGATCATTATCAACTTTATCTCATCCCATTACACACCGTAAGTGTACCATCCATCGCTCAATCACTGTATACTTAAATCTCCAGATTAAGTCACTAAATAACTGTGTTGGACTGTGAAAACTTTGAGTAAAAAAAGGCAAAATACTCTTAAAACTGTACAAAAAACAATAATTCAACCCTTACTCTTGTTGTCTATAAATTGGATGCATGAGAGCTCAACACAACACAACACCACCAACAAATTAAACATCATTACCTCTTAGCTTTTCTCCCAAGTTGTC
modifications: Ipomoea batatas
Turning to B1, in data set [3] (leaf wounding), the “time GUS expression remained above 250 nmole MU/min/mg after wounding” value is listed as “at least 50 hours” and the “time to induction of GUS expression after wounding” value is ≤ 15 min. Moreover, in data set [3] (maximum at 12 hours after wounding), the “maximum GUS expression level over the uninduced (unwounded) level” value turned out to be 16 fold. Besides, in data set [3] (within 2 hours of wounding), the “level of GUS expression after leaf wounding” value is “over 250 nmole MU/min/mg of protein”.
